Active and inactive are the calls of the source. No cut-off for these calls is given here.

Series [1] is described as follows: Drug uptake in mouse Lymph node at 769/48nm long pass by fluorescence imaging based analysis. It counts as ADME, tissue-based. The note with it: in vivo.
Series [2] is described as follows: Drug uptake in mouse Lymph node at 1000 long pass by fluorescence imaging based analysis. It counts as ADME, tissue-based. Conditions: in vivo.
The nature of series [3]: Toxicity in BALB/c mouse assessed as effect on tumor at 6.84 ug, IG measured after 14 days by H and E staining based analysis. Conditions: in vivo, po, 336 h, dose 6.84 µg, time 14 day.
In series [4] the test system is 4T1. In words: Cytotoxicity in mouse 4T1 cells assessed as increase in red fluorescence at 100 uM incubated for 12 hrs by Calcein-AM and PI staining based fluorescence microscopy analysis. It counts as functional, cell-based.
The subject of series [5] is 4T1. In words: Induction of intracellular ROS generation in mouse 4T1 cells preincubated with compound followed by laser irradiation at 808nm 1.0 W/cm2 by DCFDA staining based analysis. It counts as functional, cell-based.
Series [6] is described as follows: Toxicity in BALB/c mouse assessed as AST level in serum measured after 7 to 14 days by biochemical analysis. Conditions: time 7-14 day.
Series [7] is described as follows: Toxicity in BALB/c mouse assessed as effect on body weight at 6.84 ug, IG measured every two days for 14 days. The note with it: in vivo, po, 336 h, dose 6.84 µg, time 14 day.
Series [8] is described as follows: Toxicity in BALB/c mouse assessed as effect on tumor at 6.84 ug, IG pretreated with compound for 2 hrs followed by laser irradiation at 808nm 1.0 W/cm2 for 5 mins and measured after 14 days by H and E staining based analysis. Conditions: in vivo, po, 336 h, dose 6.84 µg, time 14 day.
Series [9] can be described thus: Toxicity in BALB/c mouse assessed as effect on kidney at 6.84 ug, IG measured after 14 days by H and E staining based analysis. It counts as tissue-based. Conditions: in vivo, po, 336 h, dose 6.84 µg, time 14 day.
Series [10] deals with 4T1. In words: Cytotoxicity in mouse 4T1 cells assessed as decrease in cell survival at 75 uM incubated for 24 hrs under laser irradiation by CCK-8 method. It counts as functional, cell-based. For orientation: Tetrazolium assays rely on reduction of a dye to a coloured formazan, in cell work by metabolically active cells.
Series [11] in a line: Toxicity in BALB/c mouse assessed as effect on lung at 6.84 ug, IG pretreated with compound for 2 hrs followed by laser irradiation at 808nm 1.0 W/cm2 for 5 mins and measured after 14 days by H and E staining based analysis. The note with it: in vivo, po, 336 h, dose 6.84 µg, time 14 day. It counts as tissue-based.
Series [12] is described as follows: Toxicity in BALB/c mouse assessed as ALT level in serum measured after 7 to 14 days by biochemical analysis. The note with it: time 7-14 day.
A short description of series [13]: Toxicity in BALB/c mouse assessed as effect on kidney at 6.84 ug, IG pretreated with compound for 2 hrs followed by laser irradiation at 808nm 1.0 W/cm2 for 5 mins and measured after 14 days by H and E staining based analysis. It counts as tissue-based. The note with it: in vivo, po, 336 h, dose 6.84 µg, time 14 day.
A short description of series [14]: Toxicity in BALB/c mouse assessed as effect on spleen at 6.84 ug, IG measured after 14 days by H and E staining based analysis. It counts as tissue-based. The note with it: in vivo, po, 336 h, dose 6.84 µg, time 14 day.
Series [15] has as its system 4T1. In words: Antitumor activity against mouse 4T1 cells xenografted in BALB/c mouse model assessed as induction of apoptosis at 6.84 ug, IG measured every two days for 14 days by TUNEL assay. It counts as functional. The note with it: dose 6.84 µg, time 14.0 day.
Series [16] in a line: Toxicity in BALB/c mouse assessed as UREA level in serum measured after 7 to 14 days by biochemical analysis. Conditions: time 7-14 day.
Series [17] in a line: Toxicity in BALB/c mouse assessed as effect on lung measured after 24 hrs by real-time NIR-II fluorescence imaging analysis. It counts as tissue-based. Conditions: in vivo.
Series [18] relates to 4T1. Briefly: Antitumor activity against mouse 4T1 cells xenografted in BALB/c mouse model assessed as increase in tumor temperature at 6.84 ug, IG pretreated with compound for 2 hrs followed by laser irradiation at 808nm 1.0 W/cm2 for 5 mins (reference value: 34 degreeC). Conditions: dose 6.84 µg, time 125 min, 2.083 h. It counts as functional.
Series [19] is described as follows: Toxicity in BALB/c mouse assessed as effect on kidney measured after 24 hrs by real-time NIR-II fluorescence imaging analysis. It counts as tissue-based. Conditions: in vivo.
Series [20] is described as follows: Toxicity in BALB/c mouse assessed as effect on spleen at 6.84 ug, IG pretreated with compound for 2 hrs followed by laser irradiation at 808nm 1.0 W/cm2 for 5 mins and measured after 14 days by H and E staining based analysis. Conditions: in vivo, po, 336 h, dose 6.84 µg, time 14 day. It counts as tissue-based.
Series [21] in a line: Toxicity in BALB/c mouse assessed as effect on body weight at 6.84 ug, IG pretreated with compound for 2 hrs followed by laser irradiation at 808nm 1.0 W/cm2 for 5 mins and measured every two days for 14 days. Conditions: in vivo, po, 336 h, dose 6.84 µg, time 14 day.
A short description of series [22]: Toxicity in BALB/c mouse assessed as effect on heart at 6.84 ug, IG pretreated with compound for 2 hrs followed by laser irradiation at 808nm 1.0 W/cm2 for 5 mins and measured after 14 days by H and E staining based analysis. It counts as tissue-based. The note with it: in vivo, po, 336 h, dose 6.84 µg, time 14 day.
Series [23] in a line: Toxicity in BALB/c mouse assessed as effect on heart measured after 24 hrs by real-time NIR-II fluorescence imaging analysis. It counts as tissue-based. Conditions: in vivo.
A short description of series [24]: Drug excretion in Balb/c mouse liver administered as iv dose measured after 12 hrs by NIR-II fluorescence imaging analysis. It counts as ADME, organism-based. The note with it: in vivo.
For series [25], the system named is 4T1. Briefly: Antitumor activity against mouse 4T1 cells xenografted in BALB/c mouse model assessed as induction of apoptosis at 6.84 ug, IG pretreated with compound for 2 hrs followed by laser irradiation at 808nm 1.0 W/cm2 for 5 mins and measured every two days for 14 days by TUNEL assay. It counts as functional. Conditions: dose 6.84 µg, time 14.0 day.
Series [26] in a line: Toxicity in BALB/c mouse assessed as effect on liver at 6.84 ug, IG pretreated with compound for 2 hrs followed by laser irradiation at 808nm 1.0 W/cm2 for 5 mins and measured after 14 days by H and E staining based analysis. The note with it: in vivo, po, 336 h, dose 6.84 µg, time 14 day. It counts as tissue-based.
The test system of series [27] is 4T1. In words: Cytotoxicity in mouse 4T1 cells assessed as increase in red fluorescence at 100 uM incubated for 12 hrs followed by 808nm laser irradiation for 5 mins and measured after 12 hrs by Calcein-AM and PI staining based fluorescence microscopy analysis. It counts as functional, cell-based. The note with it: time 1445.0 min.
The nature of series [28]: Toxicity in BALB/c mouse assessed as effect on spleen measured after 24 hrs by real-time NIR-II fluorescence imaging analysis. It counts as tissue-based. The note with it: in vivo.
Series [29] in a line: Toxicity in BALB/c mouse assessed as effect on liver at 6.84 ug, IG measured after 14 days by H and E staining based analysis. It counts as tissue-based. Conditions: in vivo, po, 336 h, dose 6.84 µg, time 14 day.
Series [30] in a line: Toxicity in BALB/c mouse assessed as creatinine level in serum measured after 7 to 14 days by biochemical analysis. Conditions: time 7-14 day.
The nature of series [31]: Toxicity in BALB/c mouse assessed as ALB level in serum measured after 7 to 14 days by biochemical analysis. The note with it: time 7-14 day.
The nature of series [32]: Drug metabolism in Balb/c mouse liver administered as iv dose by NIR-II fluorescence imaging analysis. It counts as ADME, organism-based. The note with it: in vivo.
Series [33] deals with 4T1. Briefly: Cytotoxicity in mouse 4T1 cells at upto 100 uM incubated for 24 hrs by CCK-8 method. It counts as functional, cell-based.
The nature of series [34]: Toxicity in BALB/c mouse assessed as effect on heart at 6.84 ug, IG measured after 14 days by H and E staining based analysis. Conditions: in vivo, po, 336 h, dose 6.84 µg, time 14 day. It counts as tissue-based.
In series [35] the test system is 4T1. Briefly: Antitumor activity against mouse 4T1 cells xenografted in BALB/c mouse model assessed as suppression of tumor at 6.84 ug, IG pretreated with compound for 2 hrs followed by laser irradiation at 808nm 1.0 W/cm2 for 5 mins and measured every two days for 14 days by vernier caliper analysis. It counts as functional. Conditions: dose 6.84 µg, time 14.0 day.

Series [36] is described as follows: Toxicity in BALB/c mouse assessed as effect on lung at 6.84 ug, IG measured after 14 days by H and E staining based analysis. It counts as tissue-based. The note with it: in vivo, po, 336 h, dose 6.84 µg, time 14 day.
A further series concerns NIH3T3. In words: Cytotoxicity in mouse 3T3 cells at upto 100 uM incubated for 24 hrs by CCK-8 method. It counts as toxicity, cell-based. The note with it: nih3t3, 24 h.
Series [37] is described as follows: Drug uptake in mouse 4T1 cells assessed as increase in fluorescence measured upto 12 hrs by NIR-II fluorescence microscopic analysis. It counts as ADME, cell-based. Conditions: 4t1, 12 h.
Series [38] can be described thus: Toxicity in BALB/c mouse assessed as effect on liver measured after 24 hrs by real-time NIR-II fluorescence imaging analysis. It counts as tissue-based. The note with it: in vivo.
Series [39] is described as follows: Drug uptake in mouse Lymph node at 655/24nm band pass by fluorescence imaging based analysis. It counts as ADME, tissue-based. The note with it: in vivo.

For `CCN1/C(=C/C2=C([O-])C(=C/C3=[N+](CC)c4ccc5ccccc5c4C3(C)C)/C2=O)C(C)(C)c2c1ccc1ccccc21`, the Drug uptake result in [1] was “Active”.

`CCn1/c(=C/C2=C([O-])C(=C/C3=[N+](CC)c4cccc5cccc3c45)/C2=O)c2cccc3cccc1c32`: the Drug uptake entry in series [2] is reported as “Active”.

Turning to `O=C1C(/C=c2\c3cccc4cccc(c43)n2CCCCS(=O)(=O)O)=C([O-])C/1=C/C1=[N+](CCCCS(=O)(=O)O)c2cccc3cccc1c23`, the Activity result in series [3], in [6], in series [7], in [8], in series [9] and in series [11] was “Non-Toxic” throughout. Further, the Activity entry in series [12], in [13], in series [14], in [16], in series [17] and in [19] was “Non-Toxic” throughout. In addition, the Activity entry in series [20], in [21], in series [22], in series [23], in series [26] and in series [28] was “Non-Toxic” throughout. In addition, the Activity entry (in [29]; in [30]; in series [31]; in [34]; in series [36]; with NIH3T3) was “Non-Toxic” each time. Also, the Activity result in series [38] is listed as “Non-Toxic”. Besides, the result in the series with 4T1 [4], in the series on 4T1 [5] and in the series with 4T1 [33] was inactive. Besides, the outcome in the series on 4T1 [10], in the series on 4T1 [15], with 4T1 [25], in the series on 4T1 [27] and in the series on 4T1 [35] was Active. In addition, the T with 4T1 [18] was 54 °C. For the same molecule, in [24], the Drug excretion entry is reported as “Active”. For the same molecule, the Drug metabolism result in series [32] is given as “Metabolite_Detected”. Further, the Drug uptake result in [37] was “Active”.

With `CCN1/C(=C/C2=C([O-])C(=C/C3=[N+](CC)c4ccccc4C3(C)C)/C2=O)C(C)(C)c2ccccc21`, the Drug uptake entry in series [39] was “Active”.

The record behind these values is ChEMBL document CHEMBL5500391, “Systematic Structural Modification of Squaraine Dye for Near-Infrared Window One and Two Multiplexed In Vivo Imaging and Photothermal Therapy” (J Med Chem, 2024).
